Source: publication PMC3961306, “Comparison of the Cancer Gene Targeting and Biochemical Selectivities of All Targeted Kinase Inhibitors Approved for Clinical Use” (PLoS ONE, 2014)

Columns and labels:
Assay in all cases: Kinase profiling in a biochemical assay panel (mobility shift assays and ELISA), %-inhibition at 1 μM; selectivity entropy
[1] = target: panel of more than 300 wild-type and mutant kinases (313 kinase panel) (Homo sapiens, UniProt O95819); settings: kinase HGK; compound at 1 μM
[2] = target: panel of more than 300 wild-type and mutant kinases (313 kinase panel) (Homo sapiens, UniProt P04626); settings: kinase HER2; compound at 1 μM
[3] = target: panel of more than 300 wild-type and mutant kinases (313 kinase panel) (Homo sapiens, UniProt P05771); settings: kinase PKCβ1; 1 μM
[4] = target: panel of more than 300 wild-type and mutant kinases (313 kinase panel) (Homo sapiens, UniProt P16591); settings: kinase FER; compound at 1 μM
[5] = target: panel of more than 300 wild-type and mutant kinases (313 kinase panel) (Homo sapiens, UniProt P30291); settings: kinase WEE1; compound at 1 μM
[6] = target: panel of more than 300 wild-type and mutant kinases (313 kinase panel) (Homo sapiens, UniProt P45983); settings: kinase JNK1; compound at 1 μM
[7] = target: panel of more than 300 wild-type and mutant kinases (313 kinase panel) (Homo sapiens, UniProt Q00535); settings: kinase CDK5/p25; 1 μM compound
[8] = target: panel of more than 300 wild-type and mutant kinases (313 kinase panel) (Homo sapiens, UniProt Q13627); settings: kinase DYRK1A; compound at 1 μM
[9] = target: panel of more than 300 wild-type and mutant kinases (313 kinase panel) (Homo sapiens, UniProt Q16539); settings: kinase p38α; 1 μM
[10] = target: panel of more than 300 wild-type and mutant kinases (313 kinase panel) (Homo sapiens, UniProt Q16654); settings: kinase PDHK4; 1 μM
[11] = target: panel of more than 300 wild-type and mutant kinases (313 kinase panel) (Homo sapiens, UniProt Q86V86); settings: kinase PIM3; 1 μM
[12] = target: panel of more than 300 wild-type and mutant kinases (313 kinase panel) (Homo sapiens, UniProt Q8IU85); settings: kinase CaMK1δ; 1 μM compound
[13] = target: T1, panel of more than 300 wild-type and mutant kinases (313 kinase panel) (Homo sapiens, UniProt Q96KB5); settings: kinase PBK; 1 μM
T1 sequence (Q96KB5 1-322): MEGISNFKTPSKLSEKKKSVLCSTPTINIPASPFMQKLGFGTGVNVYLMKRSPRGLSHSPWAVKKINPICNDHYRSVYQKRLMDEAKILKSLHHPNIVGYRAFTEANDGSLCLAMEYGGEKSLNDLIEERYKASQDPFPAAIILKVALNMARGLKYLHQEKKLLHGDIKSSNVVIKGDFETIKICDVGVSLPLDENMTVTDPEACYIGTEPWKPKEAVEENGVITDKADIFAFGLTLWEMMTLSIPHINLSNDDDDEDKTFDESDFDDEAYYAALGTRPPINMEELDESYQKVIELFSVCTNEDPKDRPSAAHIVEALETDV

[14] = target: T2, panel of more than 300 wild-type and mutant kinases (313 kinase panel) (Homo sapiens, UniProt Q96PF2); settings: kinase TSSK2; 1 μM
T2 sequence (Q96PF2 1-358): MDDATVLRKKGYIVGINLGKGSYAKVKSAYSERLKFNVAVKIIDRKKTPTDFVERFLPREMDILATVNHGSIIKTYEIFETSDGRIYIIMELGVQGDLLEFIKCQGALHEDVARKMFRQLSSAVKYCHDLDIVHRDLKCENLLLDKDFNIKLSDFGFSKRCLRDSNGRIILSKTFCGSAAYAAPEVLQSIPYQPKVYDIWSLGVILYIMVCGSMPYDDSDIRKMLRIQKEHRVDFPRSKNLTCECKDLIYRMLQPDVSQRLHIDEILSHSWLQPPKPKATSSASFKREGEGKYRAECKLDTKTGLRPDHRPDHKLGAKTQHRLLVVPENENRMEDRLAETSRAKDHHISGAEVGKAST

[15] = target: T3, panel of more than 300 wild-type and mutant kinases (313 kinase panel) (Homo sapiens, UniProt Q9BXA7); settings: kinase TSSK1; 1 μM
T3 sequence (Q9BXA7 1-367): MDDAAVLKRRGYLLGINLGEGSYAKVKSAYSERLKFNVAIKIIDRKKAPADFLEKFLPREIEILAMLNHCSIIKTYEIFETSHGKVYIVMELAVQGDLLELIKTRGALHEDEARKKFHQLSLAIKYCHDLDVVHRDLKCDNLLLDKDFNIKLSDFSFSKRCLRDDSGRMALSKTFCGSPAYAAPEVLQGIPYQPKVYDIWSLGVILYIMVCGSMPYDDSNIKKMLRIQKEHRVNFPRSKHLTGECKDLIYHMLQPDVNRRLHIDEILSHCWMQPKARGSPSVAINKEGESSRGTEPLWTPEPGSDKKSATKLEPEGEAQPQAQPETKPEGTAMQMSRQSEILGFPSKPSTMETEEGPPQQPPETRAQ

Chain of panel of more than 300 wild-type and mutant kinases (313 kinase panel) (Homo sapiens, UniProt Q00535) (Q00535 whole entry, change not shown): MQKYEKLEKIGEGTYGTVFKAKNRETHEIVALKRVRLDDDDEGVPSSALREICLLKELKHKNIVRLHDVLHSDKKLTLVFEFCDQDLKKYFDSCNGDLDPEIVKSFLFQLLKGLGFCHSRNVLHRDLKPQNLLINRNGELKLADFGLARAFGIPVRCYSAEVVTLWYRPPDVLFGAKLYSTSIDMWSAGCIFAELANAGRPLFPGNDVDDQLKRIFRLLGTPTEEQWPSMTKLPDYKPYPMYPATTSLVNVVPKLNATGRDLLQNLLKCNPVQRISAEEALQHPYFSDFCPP
Chain of panel of more than 300 wild-type and mutant kinases (313 kinase panel) (Homo sapiens, UniProt Q16539) (Q16539 whole entry, change not shown): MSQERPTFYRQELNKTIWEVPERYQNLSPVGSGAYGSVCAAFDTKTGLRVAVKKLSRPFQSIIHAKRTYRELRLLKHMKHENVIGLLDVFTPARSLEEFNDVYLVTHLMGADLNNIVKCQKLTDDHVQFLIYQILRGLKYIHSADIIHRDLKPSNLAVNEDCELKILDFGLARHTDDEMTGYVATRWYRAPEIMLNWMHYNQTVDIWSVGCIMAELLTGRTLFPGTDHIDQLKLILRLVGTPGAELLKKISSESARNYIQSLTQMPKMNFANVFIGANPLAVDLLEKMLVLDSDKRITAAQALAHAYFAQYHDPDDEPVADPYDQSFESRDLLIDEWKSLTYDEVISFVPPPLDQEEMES
Chain of panel of more than 300 wild-type and mutant kinases (313 kinase panel) (Homo sapiens, UniProt P04626) (P04626 23-1255, change not shown): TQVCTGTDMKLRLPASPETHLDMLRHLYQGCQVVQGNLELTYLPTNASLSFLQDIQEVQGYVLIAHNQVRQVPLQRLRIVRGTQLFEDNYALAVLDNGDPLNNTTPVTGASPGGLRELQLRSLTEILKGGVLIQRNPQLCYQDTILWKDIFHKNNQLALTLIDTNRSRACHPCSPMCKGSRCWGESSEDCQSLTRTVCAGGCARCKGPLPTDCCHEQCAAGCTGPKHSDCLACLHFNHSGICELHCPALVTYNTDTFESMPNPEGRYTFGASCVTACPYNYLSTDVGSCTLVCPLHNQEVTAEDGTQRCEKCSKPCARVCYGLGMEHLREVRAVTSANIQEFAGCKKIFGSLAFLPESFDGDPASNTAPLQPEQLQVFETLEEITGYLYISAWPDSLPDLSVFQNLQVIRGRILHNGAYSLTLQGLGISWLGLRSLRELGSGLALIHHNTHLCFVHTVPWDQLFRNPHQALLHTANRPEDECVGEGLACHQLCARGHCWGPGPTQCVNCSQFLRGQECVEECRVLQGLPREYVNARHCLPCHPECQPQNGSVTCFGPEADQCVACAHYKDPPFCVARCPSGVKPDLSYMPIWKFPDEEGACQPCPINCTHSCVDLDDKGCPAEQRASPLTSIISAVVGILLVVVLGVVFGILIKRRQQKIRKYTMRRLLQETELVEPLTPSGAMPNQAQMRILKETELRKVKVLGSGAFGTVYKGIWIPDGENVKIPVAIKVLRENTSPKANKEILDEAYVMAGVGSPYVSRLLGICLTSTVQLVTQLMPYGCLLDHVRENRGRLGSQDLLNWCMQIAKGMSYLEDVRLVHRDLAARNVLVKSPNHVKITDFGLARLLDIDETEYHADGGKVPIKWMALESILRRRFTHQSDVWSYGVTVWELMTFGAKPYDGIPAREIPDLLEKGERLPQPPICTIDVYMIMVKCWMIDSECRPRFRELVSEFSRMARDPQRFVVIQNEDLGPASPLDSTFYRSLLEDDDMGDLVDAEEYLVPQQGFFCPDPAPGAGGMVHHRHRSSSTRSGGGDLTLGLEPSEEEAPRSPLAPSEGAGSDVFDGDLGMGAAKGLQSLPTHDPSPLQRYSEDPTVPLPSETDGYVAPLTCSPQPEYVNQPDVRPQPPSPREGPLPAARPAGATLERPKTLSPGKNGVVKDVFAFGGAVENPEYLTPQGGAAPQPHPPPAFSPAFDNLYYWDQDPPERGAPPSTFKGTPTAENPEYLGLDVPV
Chain of panel of more than 300 wild-type and mutant kinases (313 kinase panel) (Homo sapiens, UniProt P16591) (P16591 whole entry, change not shown): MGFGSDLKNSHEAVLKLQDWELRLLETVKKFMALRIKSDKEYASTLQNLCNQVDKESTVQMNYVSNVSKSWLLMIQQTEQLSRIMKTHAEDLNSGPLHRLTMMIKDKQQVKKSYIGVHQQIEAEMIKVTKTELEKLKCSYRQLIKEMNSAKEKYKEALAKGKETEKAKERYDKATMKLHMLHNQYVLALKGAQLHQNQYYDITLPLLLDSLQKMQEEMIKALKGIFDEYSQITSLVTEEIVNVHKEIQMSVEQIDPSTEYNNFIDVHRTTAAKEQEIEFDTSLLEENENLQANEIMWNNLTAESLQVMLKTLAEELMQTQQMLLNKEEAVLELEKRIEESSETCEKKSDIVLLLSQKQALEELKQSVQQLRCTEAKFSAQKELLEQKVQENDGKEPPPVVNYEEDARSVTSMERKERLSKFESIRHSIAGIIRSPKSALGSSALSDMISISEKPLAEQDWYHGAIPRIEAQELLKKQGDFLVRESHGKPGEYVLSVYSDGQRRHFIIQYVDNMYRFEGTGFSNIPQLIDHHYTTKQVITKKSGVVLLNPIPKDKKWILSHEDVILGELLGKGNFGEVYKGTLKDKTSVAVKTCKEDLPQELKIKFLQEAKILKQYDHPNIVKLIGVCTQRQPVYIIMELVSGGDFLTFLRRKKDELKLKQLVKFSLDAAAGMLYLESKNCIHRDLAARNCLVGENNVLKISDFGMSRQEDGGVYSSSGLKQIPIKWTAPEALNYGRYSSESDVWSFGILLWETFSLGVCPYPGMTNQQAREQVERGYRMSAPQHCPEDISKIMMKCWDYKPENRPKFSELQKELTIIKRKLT
Chain of panel of more than 300 wild-type and mutant kinases (313 kinase panel) (Homo sapiens, UniProt P30291) (P30291 whole entry, change not shown): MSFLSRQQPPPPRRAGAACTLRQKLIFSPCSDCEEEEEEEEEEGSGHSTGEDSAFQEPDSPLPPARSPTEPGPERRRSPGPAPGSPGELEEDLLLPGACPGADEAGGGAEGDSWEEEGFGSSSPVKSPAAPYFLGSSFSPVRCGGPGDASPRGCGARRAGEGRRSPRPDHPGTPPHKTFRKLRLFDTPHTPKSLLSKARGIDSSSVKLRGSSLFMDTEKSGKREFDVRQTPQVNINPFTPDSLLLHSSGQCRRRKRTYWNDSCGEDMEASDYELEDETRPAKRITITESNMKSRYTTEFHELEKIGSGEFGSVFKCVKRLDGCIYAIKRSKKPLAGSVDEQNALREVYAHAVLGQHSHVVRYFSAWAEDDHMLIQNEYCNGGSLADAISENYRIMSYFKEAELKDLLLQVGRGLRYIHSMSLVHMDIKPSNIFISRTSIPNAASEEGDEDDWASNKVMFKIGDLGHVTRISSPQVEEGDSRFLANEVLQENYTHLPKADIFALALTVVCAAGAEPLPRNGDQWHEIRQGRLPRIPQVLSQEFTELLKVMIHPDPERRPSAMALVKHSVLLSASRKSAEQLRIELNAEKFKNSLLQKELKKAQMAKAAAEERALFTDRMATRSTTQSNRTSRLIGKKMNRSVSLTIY
Chain of panel of more than 300 wild-type and mutant kinases (313 kinase panel) (Homo sapiens, UniProt P45983) (P45983 whole entry, change not shown): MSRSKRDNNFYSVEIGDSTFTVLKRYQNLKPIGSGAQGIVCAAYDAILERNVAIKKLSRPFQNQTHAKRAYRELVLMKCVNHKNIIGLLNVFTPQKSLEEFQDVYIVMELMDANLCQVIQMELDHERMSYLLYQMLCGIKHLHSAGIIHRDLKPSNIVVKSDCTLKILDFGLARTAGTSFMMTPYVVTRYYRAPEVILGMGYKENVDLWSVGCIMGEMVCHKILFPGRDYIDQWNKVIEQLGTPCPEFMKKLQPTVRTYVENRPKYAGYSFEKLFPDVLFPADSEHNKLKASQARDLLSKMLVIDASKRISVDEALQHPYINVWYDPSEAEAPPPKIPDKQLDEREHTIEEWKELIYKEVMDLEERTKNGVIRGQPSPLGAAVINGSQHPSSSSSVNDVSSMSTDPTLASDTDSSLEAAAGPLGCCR

Row | SMILES | %-inhibition of HGK [1] [%] | %-inhibition of HER2 [2] [%] | %-inhibition of PKCβ1 [3] [%] | %-inhibition of FER [4] [%] | %-inhibition of WEE1 [5] [%] | %-inhibition of JNK1 [6] [%] | %-inhibition, CDK5/p25 [7] [%] | %-inhibition of DYRK1A [8] [%] | %-inhibition of p38α [9] [%] | %-inhibition of PDHK4 [10] [%] | %-inhibition of PIM3 [11] [%] | %-inhibition, CaMK1δ [12] [%] | %-inhibition of PBK [13] [%] | %-inhibition of TSSK2 [14] [%] | %-inhibition of TSSK1 [15] [%]
1 | CO[C@H]1C[C@@H]2CC[C@@H](C)[C@@](O)(O2)C(=O)C(=O)N2CCCC[C@H]2C(=O)O[C@H]([C@H](C)C[C@@H]2CC[C@@H](OC(=O)C(C)(CO)CO)[C@H](OC)C2)CC(=O)[C@H](C)/C=C(\C)[C@@H](O)[C@@H](OC)C(=O)[C@H](C)C[C@H](C)/C=C/C=C/C=C/1C [temsirolimus] | -0.299 | -0.179 | -2 | -4 | 4.25 | -3.71 | -22 | -3 | -5 | -1.83 | -1.31 | -7 | -9 | -0.179 | -7
2 | CNC(=O)c1cc(Oc2ccc(NC(=O)Nc3ccc(Cl)c(C(F)(F)F)c3)c(F)c2)ccn1 [regorafenib] | 53 | 6.43 | -7 | -2 | 4.42 | -1.47 | -19 | -15 | 94 | -1.61 | -6.53 | -5.29 | -29 | -11 | -7
3 | CO[C@H]1C[C@@H]2CC[C@@H](C)[C@@](O)(O2)C(=O)C(=O)N2CCCC[C@H]2C(=O)O[C@H]([C@H](C)C[C@@H]2CC[C@@H](OCCO)[C@H](OC)C2)CC(=O)[C@H](C)/C=C(\C)[C@@H](O)[C@@H](OC)C(=O)[C@H](C)C[C@H](C)/C=C/C=C/C=C/1C [everolimus] | 0.896 | -2.5 | 29 | -0.138 | 7 | -5 | -26 | -11 | -4.27 | 2 | -4 | -8 | -10 | -11 | -6
4 | COc1cc2c(Nc3ccc(Br)cc3F)ncnc2cc1OCC1CCN(C)CC1 [vandetanib] | 69 | 67 | -6 | 2.48 | 1.73 | -0.604 | -25 | -11 | 18 | -1.83 | -6 | -3 | -21 | -9 | 2.66
5 | CCCS(=O)(=O)Nc1ccc(F)c(C(=O)c2c[nH]c3ncc(-c4ccc(Cl)cc4)cc23)c1F [vemurafenib] | 26 | 2 | -3.81 | 11 | -1.64 | 1.47 | 5 | -18 | 10 | -1.4 | -5 | -7 | -12 | -11 | -4
